What was measured:
[1] = tested on: HIF2α-dependent transcription in 786-O-HRE-Luc cells; test: In vitro cellular hypoxia response element (HRE) reporter gene assay (RGA) for HIF2α; format: cell-based, human; conditions: Homo sapiens, 24 hours incubation
Experimental: (§1) Stock solutions of compounds were prepared at a concentration of 10 mM in DMSO and stored at 4° C. Where necessary to afford a full dose-response curve, the stock solutions were pre-diluted in DMSO to 1,000-fold the desired reduced start concentration. On the day after cell seeding, eleven 2-fold serial dilutions of each compound were dispensed directly into the cell assay plates using either HP 300D non-contact Digital Dispenser (TECAN) or a ATS100 acoustic dispenser (EDC Biosystems).
The ability of compounds to inhibit HIF2α- and HIF1α-dependent transcription was assessed in 786-O-HRE-Luc and RCC4-HRE-Luc cells, respectively. The putative unselective inhibition of firefly luciferase activity or expression was assessed in 786-O-UB6-Luc and RCC4-UB6-Luc cells, respectively. The reporter lines were generated as follows: 786-O (RRID: CVCL_1051) and RCC4 (RRID: CVCL_0498) clear cell renal carcinoma cell lines were obtained from ATCC and Celeste Simon (University of Pennsylvania), respectively. Either cell line was transduced with a lentiviral vector in which the expression of a PEST-destabilized version of firefly-luciferase is under the control of either a minimal promoter coupled to four copies of a minimal hypoxia response element (HRE) sequence (pLenti 4×HRE Luc PEST), or a promoter from the house-keeping UBC gene (pLenti UB6 Luc PEST). In short, for the construction of the pLenti 4×HRE Luc PEST vector, 4×HRE DNA oligonucleotides were synthesized, annealed and cloned into pGL4.27 plasmid vector (Promega) predigested with NheI and HindIII restriction enzymes. The sequence of the two DNA oligonucleotides was as follows: NheI 4×HRE HindIII FWD: […] (SEQ ID NO: 8); NheI 4×HRE HindIII REV […] (SEQ ID NO: 9). The 4×HRE Luc PEST fragment was then PCRed from this plasmid with restriction enzyme sites NheI and XhoI at the two ends, and inserted into pLenti6/BLOCK iT DEST (Thermo Fisher Scientific) predigested with NheI and XhoI restriction enzymes. For the construction of the pLenti UB6 Luc PEST vector, the Luc PEST sequence was PCRed from pGL4.27 (Promega) using EcoRV and XhoI restriction enzymes at the two ends, and inserted into pLenti6/UBC/V5/DEST (Thermo Fisher Scientific) predigested with the same enzymes. 786-O and RCC4 cells (300,000 per well of a 6 well plate) were infected in the presence of 10 μg/ml polybrene with lentivirus harvested two days after transfection of HEK293-FT (ThermoFisher Scientific #R70007) cells (80% confluent in a 100 cm^2 dish) with a mix of 1.5 ml OptiMEM (ThermoFisher Scientific #31985062) containing 3 μg of the desired plasmids and 9 μl of ViralPower Packaging mix (ThermoFisher Scientific #K497500), and 1.5 ml OptiMEM containing 36 μl Lipofectamine 2000 (ThermoFisher Scientific #11668019). Successfully infected cells were selected using blasticidin (Gibco #A11139-03) at a final concentration of 5 μg/ml. The resulting stable cell lines were named 786-O pLenti 4×HRE Luc PEST (short: 786-O-HRE-Luc), 786-O pLenti UB6 Luc PEST (short: 786-O-UB6-Luc), RCC4 pLenti 4×HRE Luc PEST (short: RCC4-HRE-Luc) and RCC4 pLenti UB6 Luc PEST (short: RCC4-UB6-Luc). All 4 cell lines were maintained in growth medium composed of DMEM (GIBCO #11995-065), 2 mM L-Glutamine (BioConcept #5-10K50-H), 10% fetal calf serum (Gibco #A31608-01), 1× Penicillin/Streptomycin (BioConcept #4-01F00-H), 1 mM Sodium pyruvate (BioConcept #5-60F00-H) and 5 μg/ml blasticidin (Gibco #A11139-03) at 37° C. in a humidified 5% CO2 incubator.
For the reporter gene assay, the individual cell lines were seeded at 2,500 cells/20 μL/well into white-wall, clear-bottom 384-well plates (Greiner #781098) and incubated over night at 37° C. prior to addition of serial compound dilutions as described above. […]

[2] = tested on: HIF2α-regulated expression of the endogenous target gene hEGLN3 in 786-O cells; test: Cellular iScript assay for HIF2α (quantitative RT-PCR of hEGLN3); format: cell-based, human; conditions: Homo sapiens, 786-0, 48 hours incubation
Experimental: as §1
Compound-mediated modulation of the HIF2α-regulated expression of the endogenous target gene hEGLN3 (OMIM: 606426), as well as beta-actin (OMIM: 102630) as a house-keeping control, was assess in 786-O cells (RRID CVCL_1051) using a quantitative RT-PCR approach. In short, 786-O cells were maintained in growth medium composed of DMEM (GIBCO #11995-065), 2 mM L-Glutamine (BioConcept #5-10K50-H), 1× Penicillin/Streptomycin (BioConcept #4-01F00-H), 10% fetal calf serum (Gibco #A31608-01), 1 mM Sodium pyruvate (BioConcept #5-60F00-H). Cells were seeded at 1,000 cells/20 μL/well into white-wall, clear-bottom 384-well plates (Greiner #781098) and incubated over night at 37° C. prior to addition of serial compound dilutions as described above. Following incubation for 48 hours at 37° C., medium supernatant was discarded and the plate blotted dry by inverting on a tissue. The same procedure was repeated following one wash with 20 μL phosphate-buffered saline. Following addition of 25 μL/well iScript sample preparation reagent (BioRad #170-8899) using a 16-channel Matrix pipette, the plate was incubated for 2 min at room temperature. 20 μL lysate supernatant was then removed and transferred to a new 384 well plate (Costar #3656) and diluted 1:3 by adding 5 μL of the lysate to 10 μL H2O using a Bravo liquid handler (Agilent). 2 μL of the diluted lysate was added to the 8 μL of a mastermix containing 5 μL iTaq Universal Probes One-step kit (BioRad #172-5141), 0.25 μL iScript reverse transcription supermix (BioRad #1708840), 0.25 μL 40×HEX-ZEN-labeled TaqMan probe for beta-actin (IDT #Hs.PT.39a.22214847: Probe 5′ HEX-TCA TCC ATG/ZEN/GTG AGC TGG CGG-3′ (SEQ ID NO: 2) Iowa Black FQ, Primer 1: ACA GAG CCT CGC CTT TG (SEQ ID NO: 3); Primer 2: CCT TGC ACA TGC CGG (SEQ ID NO: 4) AG), 0.25 μL, 40×FAM-ZEN-labeled TaqMan probe for hEGLN3 (IDT #Hs.PT.58.189348: Probe 5′ 6-FAM-TTT GGC TTC/ZEN/TGC CCT TTC TTC AGC-3′ (SEQ ID NO: 5) Iowa Black FQ, Primer 1: CACGGTCAGTCTTCAGTGAG (SEQ ID NO: 6); Primer 2: CGCAACCAGATATGCTATGACT (SEQ ID NO: 7)), 2.25 μL RNase-free water, prelaid in a 384 well plate (ABI #4309849) using a 16-channel Matrix pipette. The plate was sealed with a PCR-compatible optical film (MicroAmp, ABI #4360954) and centrifuged (1500 rpm, 5 min, +4° C.) to collect all reagents in the bottom of the well and to remove bubbles. The plate content was amplified on a 7900HT thermal cycler (ABI) using the following conditions: Step 1: 50° C. for 10 min, Step 2: 95° C. for 3 min, Step 3 (40×): 95° C. for 15 s, 60° C. for 1 min. ROX (reaction volume 10 μL) was used as a passive reference. Data were collected with manual adjustment of the Ct threshold (beta-actin: 0.046, hEGLN3: 0.06) and were analyzed using the 2^(−ΔΔCt) method. Thus, for each sample, the following values were calculated: 2^(−Ct)a for beta-actin, 2^(−Ct)e for EGLN3, and 2^(−ΔCt) calculated as (2^(−Ct)e/2^(−Ct)a). The mean 2^(−ΔCt) as well as the corresponding standard deviation was calculated for each sample. Taking the DMSO-treated sample as a reference, the 2^(−ΔΔCt) for each sample was calculated as follows: 2^(−ΔΔCt)=2^(−ΔCt)sample/(2^(−ΔCt)DMSO). After calculating differential expression as 2^(−ΔΔCt) for each sample, it was then expressed as a percentage (×100) to obtain a dose-response curve in % of DMSO control and IC50s were calculated using a four-parametric fit model.

[3] = target: HIF2α PAS-B domain (236-350, biotinylated on the N-terminus) (Homo sapiens (Human), UniProt Q99814)
Chain of HIF2α PAS-B domain (236-350, biotinylated on the N-terminus) (Q99814 236-350): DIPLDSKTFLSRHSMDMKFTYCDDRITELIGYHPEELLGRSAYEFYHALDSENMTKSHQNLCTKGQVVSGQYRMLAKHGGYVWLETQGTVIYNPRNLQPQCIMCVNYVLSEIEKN
Experimental: The assay buffer contained 50 mM Tris-HCl pH7 (Sigma), 20 mM NaCl (Fluka), 0.02% BSA (Sigma), 0.005% Triton X-100 (Pierce) and 1 mM DTT (Fluka). After a 30 min incubation period, 5 μL Streptavidin PVT SPA Beads (Perkin Elmer) at 1.2 mg/mL, diluted in the buffer, were added.

Structure (SMILES): N#CC1=CN2C[C@@]3(CCc4c3ccc(Br)c4F)N=C2C(OC(F)F)=C1 [Example 4, (S)-5′-bromo-8-(difluoromethoxy)-4′-fluoro-2′,3′-dihydro-3H-spiro[imidazo[1,2-a]pyridine-2,1′-indene]-6-carbonitrile]
- IC50 [1]: 699 nM
- IC50 [2]: 155 nM
- IC50 [3]: 9 nM

Structure (SMILES): N#CC1=CN2C[C@@]3(CCOc4c3ccc(Br)c4F)N=C2C(OC(F)F)=C1 [Example 49, (S)-7-bromo-8′-(difluoromethoxy)-8-fluoro-3′H-spiro[chroman-4,2′-imidazo[1,2-a]pyridine]-6′-carbonitrile]
- IC50 [1]: 979 nM
- IC50 [2]: 173 nM
- IC50 [3]: 12 nM

Structure (SMILES): FC(F)OC1=CC(C(F)(F)F)=CN2C[C@@]3(CCc4cc(Br)ccc43)N=C12 [Example 72, (5)-5′-bromo-8-(difluoromethoxy)-6-(trifluoromethyl)-2′,3′-dihydro-3H-spiro[imidazo[1,2-a]pyridine-2,1′-indene]]
- IC50 [2]: 84 nM
- IC50 [3]: 7 nM

Structure (SMILES): O=C1CC[C@@]2(CN3C=C(C(F)(F)F)C=C(OC(F)F)C3=N2)c2ccc(Br)cc21 [Example 90, (S)-6′-bromo-8-(difluoromethoxy)-6-(trifluoromethyl)-2′,3′-dihydro-3H,4′H-spiro[imidazo[1,2-a]pyridine-2,1′-naphthalen]-4′-one]
- IC50 [2]: 162 nM
- IC50 [3]: 10 nM

Structure (SMILES): Fc1ccc2c(c1)CSC[C@@]21CN2C=C(C(F)(F)F)C=C(OC(F)F)C2=N1 [Example 116, (S)-8-(difluoromethoxy)-7′-fluoro-6-(trifluoromethyl)-3H-spiro[imidazo[1,2-a]pyridine-2,4′-isothiochromane]]
- IC50 [2]: 46 nM
- IC50 [3]: 6 nM

Structure (SMILES): FC(F)OC1=CC(C(F)(F)F)=CN2CC3(CCCc4c(C(F)(F)F)cccc43)N=C12 (racemic) [Example 87, rac-8-(difluoromethoxy)-5′,6-bis(trifluoromethyl)-3′,4′-dihydro-2′H,3H-spiro[imidazo[1,2-a]pyridine-2,1′-naphthalene]]
- IC50 [2]: 159 nM

Structure (SMILES): Fc1cccc2c1CCC[C@@]21CN2C=C(C(F)(F)F)C=C(Cl)C2=N1 [Example 79, (S)-8-chloro-5′-fluoro-6-(trifluoromethyl)-3′,4′-dihydro-2′H,3H-spiro[imidazo[1,2-a]pyridine-2,1′-naphthalene]]
- IC50 [2]: 70 nM
- IC50 [3]: 5 nM

Structure (SMILES): FC(F)OC1=CC(C(F)(F)F)=CN2C[C@@]3(CCc4cc(C(F)(F)F)ccc43)N=C12 [Example 6, (S)-8-(difluoromethoxy)-5′,6-bis(trifluoromethyl)-2′,3′-dihydro-3H-spiro[imidazo[1,2-a]pyridine-2,1′-indene]]
- IC50 [1]: 250 nM
- IC50 [2]: 84 nM

Structure (SMILES): N#CC1=CN2C[C@@]3(CCSc4c3ccc(Br)c4F)N=C2C(OC(F)F)=C1 [Example 110, (S)-7′-bromo-8-(difluoromethoxy)-8′-fluoro-3H-spiro[imidazo[1,2-a]pyridine-2,4′-thiochromane]-6-carbonitrile]
- IC50 [2]: 35 nM

Structure (SMILES): Fc1ccc2c(c1F)SCC[C@@]21CN2C=C(C(F)(F)F)C=C(OC(F)F)C2=N1 [Example 113, (S)-8-(difluoromethoxy)-7′,8′-difluoro-6-(trifluoromethyl)-3H-spiro[imidazo[1,2-a]pyridine-2,4′-thiochromane]]
- IC50 [2]: 32 nM
- IC50 [3]: 4 nM

Structure (SMILES): FC(F)(F)C1=CN2C[C@@]3(CCc4c3ccc(Br)c4Cl)N=C2C(Cl)=C1 [Example 71, (S)-5′-bromo-4′,8-dichloro-6-(trifluoromethyl)-2′,3′-dihydro-3H-spiro[imidazo[1,2-a]pyridine-2,1′-indene]]
- IC50 [2]: 181 nM
- IC50 [3]: 20 nM

Structure (SMILES): FC(F)OC1=CC(C(F)(F)F)=CN2C[C@@]3(CCc4ccccc43)N=C12 [Example 75, (S)-8-(difluoromethoxy)-6-(trifluoromethyl)-2′,3′-dihydro-3H-spiro[imidazo[1,2-a]pyridine-2,1′-indene]]
- IC50 [2]: 183 nM
- IC50 [3]: 76 nM

Structure (SMILES): Fc1cccc2c1CSC[C@@]21CN2C=C(C(F)(F)F)C=C(OC(F)F)C2=N1 [Example 115, (S)-8-(difluoromethoxy)-8′-fluoro-6-(trifluoromethyl)-3H-spiro[imidazo[1,2-a]pyridine-2,4′-isothiochromane]]
- IC50 [2]: 30 nM
- IC50 [3]: ≤ 3 nM
